From PubChem BioAssay AID2334 (Sanford-Burnham Center for Chemical Genomics, 2010)

Tested on: HEK293 NOD2/MDP-stimulated NF-kB reporter inhibition
Assay: PubChem AID 2334

In the case of `O=C(Nc1nc2c(F)cc(F)cc2s1)c1ccc([N+](=O)[O-])o1`, the IC50 is reported as 15.6 µM.
